Assay results reported in ChEMBL document CHEMBL1201862, “PubChem BioAssay data set” (2004).
Active and inactive are the calls of the source.

Key:
[1] = target: T1, Apoptotic protease-activating factor 1 (Homo sapiens, UniProt O14727); assay type: functional
T1 sequence (O14727 whole entry): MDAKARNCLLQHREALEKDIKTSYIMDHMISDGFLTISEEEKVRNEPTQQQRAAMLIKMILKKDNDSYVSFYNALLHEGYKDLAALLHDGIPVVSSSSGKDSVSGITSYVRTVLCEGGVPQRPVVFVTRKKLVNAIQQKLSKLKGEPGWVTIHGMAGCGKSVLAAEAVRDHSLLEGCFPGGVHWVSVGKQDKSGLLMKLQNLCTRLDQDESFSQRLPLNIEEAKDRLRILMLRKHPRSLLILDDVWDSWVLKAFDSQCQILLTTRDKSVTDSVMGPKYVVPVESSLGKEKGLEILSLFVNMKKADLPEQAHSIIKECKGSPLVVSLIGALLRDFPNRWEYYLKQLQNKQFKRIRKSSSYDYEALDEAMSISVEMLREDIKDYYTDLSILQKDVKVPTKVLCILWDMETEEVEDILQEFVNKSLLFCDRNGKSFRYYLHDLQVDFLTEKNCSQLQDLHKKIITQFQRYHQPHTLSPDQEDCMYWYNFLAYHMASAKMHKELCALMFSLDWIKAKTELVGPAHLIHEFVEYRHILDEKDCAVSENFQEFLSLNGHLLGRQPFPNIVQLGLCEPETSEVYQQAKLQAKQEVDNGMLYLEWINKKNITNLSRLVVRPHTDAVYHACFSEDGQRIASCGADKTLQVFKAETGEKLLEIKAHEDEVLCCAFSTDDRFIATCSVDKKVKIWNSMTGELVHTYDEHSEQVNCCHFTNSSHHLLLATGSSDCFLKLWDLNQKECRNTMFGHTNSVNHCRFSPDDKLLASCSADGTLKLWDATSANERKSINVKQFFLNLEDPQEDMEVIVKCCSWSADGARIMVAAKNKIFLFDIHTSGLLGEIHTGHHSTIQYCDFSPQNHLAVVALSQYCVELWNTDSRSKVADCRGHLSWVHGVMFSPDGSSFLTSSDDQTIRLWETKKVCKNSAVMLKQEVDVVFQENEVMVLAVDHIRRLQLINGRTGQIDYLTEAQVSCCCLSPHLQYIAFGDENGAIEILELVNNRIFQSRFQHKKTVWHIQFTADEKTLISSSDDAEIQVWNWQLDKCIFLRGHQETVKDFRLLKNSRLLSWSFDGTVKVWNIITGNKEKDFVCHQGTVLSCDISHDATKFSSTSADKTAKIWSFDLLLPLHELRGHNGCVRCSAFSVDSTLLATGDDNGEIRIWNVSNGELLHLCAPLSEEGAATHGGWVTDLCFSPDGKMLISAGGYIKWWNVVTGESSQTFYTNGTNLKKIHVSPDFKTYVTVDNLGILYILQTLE

[2] = system: Streptococcus sp. 'group A'; test: growth inhibition of control SK(-) GAS strain, dose response, counter-screen for streptokinase expression inhibitor project, luminescence, kanamycin, BacTiterGlo, confirmation (AID 1900); assay type: functional, organism-based
[3] = target: T2, Voltage-gated N-type calcium channel alpha-1B subunit/Amyloid beta A4 precursor protein-binding family A member 1 (Homo sapiens, UniProt Q00975+Q02410); assay type: protein assay
Streptokinase A = target: T3, Streptokinase A (Streptococcus pyogenes serotype M1, UniProt P10520); test: S. pyogenes streptokinase expression inhibitors, potency, dose response, plasminogen activation absorbance, OD405 (AID 1914); assay type: functional, Streptococcus pyogenes M1 GAS;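 note: secreted streptokinase activity via plasminogen activation per viability signal from cell pellet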
T3 sequence (P10520 whole entry): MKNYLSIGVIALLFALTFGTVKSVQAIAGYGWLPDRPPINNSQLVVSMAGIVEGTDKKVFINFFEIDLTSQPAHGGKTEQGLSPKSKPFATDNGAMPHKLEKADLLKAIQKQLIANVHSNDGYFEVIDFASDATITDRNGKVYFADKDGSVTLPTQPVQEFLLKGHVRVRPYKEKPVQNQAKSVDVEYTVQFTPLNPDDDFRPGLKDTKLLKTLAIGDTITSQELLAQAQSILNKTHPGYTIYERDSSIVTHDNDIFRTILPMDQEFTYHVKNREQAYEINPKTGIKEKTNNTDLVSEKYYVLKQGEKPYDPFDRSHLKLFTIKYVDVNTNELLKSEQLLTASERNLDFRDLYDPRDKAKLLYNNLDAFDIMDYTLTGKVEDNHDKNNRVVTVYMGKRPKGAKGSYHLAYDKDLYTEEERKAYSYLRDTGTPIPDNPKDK

Estrogen receptor = target: T4, Estrogen receptor (Homo sapiens, UniProt P03372);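 note: potency for inhibiting coactivator peptide recruitment to the receptor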
T4 sequence (P03372 whole entry): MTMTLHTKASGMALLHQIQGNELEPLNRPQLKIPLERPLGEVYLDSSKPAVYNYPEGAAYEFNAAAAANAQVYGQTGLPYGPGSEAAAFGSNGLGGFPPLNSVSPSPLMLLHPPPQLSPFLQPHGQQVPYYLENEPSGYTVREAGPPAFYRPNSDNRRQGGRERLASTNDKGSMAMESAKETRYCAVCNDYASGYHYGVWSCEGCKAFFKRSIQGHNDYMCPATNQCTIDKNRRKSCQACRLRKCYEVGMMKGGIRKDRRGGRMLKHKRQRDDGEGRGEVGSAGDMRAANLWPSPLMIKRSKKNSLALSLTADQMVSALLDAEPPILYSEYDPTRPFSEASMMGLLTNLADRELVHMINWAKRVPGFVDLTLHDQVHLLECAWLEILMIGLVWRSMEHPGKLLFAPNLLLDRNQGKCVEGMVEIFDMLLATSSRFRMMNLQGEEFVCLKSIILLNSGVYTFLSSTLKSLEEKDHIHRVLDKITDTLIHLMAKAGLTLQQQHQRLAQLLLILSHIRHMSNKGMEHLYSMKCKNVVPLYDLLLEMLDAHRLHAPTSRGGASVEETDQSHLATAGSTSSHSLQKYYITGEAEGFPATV

[4] = target: T2, Voltage-gated N-type calcium channel alpha-1B subunit/Amyloid beta A4 precursor protein-binding family A member 1; assay type: protein assay; remark: listed apart in the source
Streptococcus = test: Group A Streptococcus viability loss, dose response, counter-screen for streptokinase expression inhibitor project, luminescence, BacTiterGlo (AID 1915); assay type: functional, organism-based;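 note: potency for reduction of bacterial viability or growth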
[5] = target: Voltage-dependent T-type calcium channel subunit alpha-1H (Homo sapiens, UniProt O95180); assay type: functional;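 note: channel activity triggered by adding a high calcium stimulation buffer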
INS1 = test: beta cell apoptosis inhibitors, cytokine rescue, dose response, luminescence, retest (AID 449756); assay type: functional, cell-based; details: Rattus norvegicus;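 note: cell death triggered by IL-1 beta plus TNF-alpha plus IFN-gamma mixture; protective hits raise ATP signal compared with cytokine alone wells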
Vero = test: cells; assay type: functional; details: Chlorocebus sabaeus
Estrogen receptor beta [6] = target: T5, Estrogen receptor beta (Homo sapiens, UniProt Q92731);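 note: recombinant ER-beta bound to coactivator SRC1 peptide in presence of estradiol agonist; inhibitors block coactivator peptide binding and lower the FRET signal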
Estrogen receptor beta [7] = target: T5, Estrogen receptor beta; test: ERβ–SRC-3 coactivator interaction inhibitors, confirmation, orthogonal assay, biochemical, ELISA, streptavidin-HRP readout (AID 1060)
HeLa = test: HeLa cell cytotoxicity, dose response, cytotoxicity control for MITF activator project, CellTiter-Glo luminescence, cherry-pick samples (AID 540259); assay type: functional, cell-based; details: Homo sapiens
[8] = target: T6, Sentrin-specific protease 8 (Homo sapiens, UniProt Q96LD8); test: SENP8 protease inhibitors, SAR follow-up, biochemical, luminescence (AID 504501); assay type: functional
T6 sequence (Q96LD8 whole entry): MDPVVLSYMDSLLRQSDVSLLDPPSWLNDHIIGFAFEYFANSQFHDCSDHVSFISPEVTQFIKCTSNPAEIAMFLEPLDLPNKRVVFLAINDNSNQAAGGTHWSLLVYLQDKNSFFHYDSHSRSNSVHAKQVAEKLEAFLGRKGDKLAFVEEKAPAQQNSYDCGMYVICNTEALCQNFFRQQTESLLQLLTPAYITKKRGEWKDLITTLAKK

Caspase-3 = target: T7, Caspase-3 (Homo sapiens, UniProt P42574); test: SAR Analysis of small molecule inhibitors of Sentrin-specific proteases (SENPs) using a Caspase-3 Selectivity assay. [Related pubchem assays (depositor defined):AID2540, AID2599, AID434973, AID489001]; assay type: functional
T7 sequence (P42574 whole entry): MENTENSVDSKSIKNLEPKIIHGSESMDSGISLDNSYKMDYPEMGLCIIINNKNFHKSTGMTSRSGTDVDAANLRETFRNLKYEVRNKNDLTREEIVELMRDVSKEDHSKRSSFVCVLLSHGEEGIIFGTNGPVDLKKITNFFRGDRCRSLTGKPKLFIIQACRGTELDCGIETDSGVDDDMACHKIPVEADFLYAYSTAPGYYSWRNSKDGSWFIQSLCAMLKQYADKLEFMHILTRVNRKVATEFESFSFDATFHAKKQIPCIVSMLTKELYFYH

[9] = target: T8, Sentrin-specific protease 6 (Homo sapiens, UniProt Q9GZR1); test: SAR Analysis of small molecule inhibitors of Sentrin-specific protease 6 (SENP6) using a Luminescent assay. [Related pubchem assays (depositor defined):AID2582, AID2599]; assay type: functional
T8 sequence (Q9GZR1 whole entry): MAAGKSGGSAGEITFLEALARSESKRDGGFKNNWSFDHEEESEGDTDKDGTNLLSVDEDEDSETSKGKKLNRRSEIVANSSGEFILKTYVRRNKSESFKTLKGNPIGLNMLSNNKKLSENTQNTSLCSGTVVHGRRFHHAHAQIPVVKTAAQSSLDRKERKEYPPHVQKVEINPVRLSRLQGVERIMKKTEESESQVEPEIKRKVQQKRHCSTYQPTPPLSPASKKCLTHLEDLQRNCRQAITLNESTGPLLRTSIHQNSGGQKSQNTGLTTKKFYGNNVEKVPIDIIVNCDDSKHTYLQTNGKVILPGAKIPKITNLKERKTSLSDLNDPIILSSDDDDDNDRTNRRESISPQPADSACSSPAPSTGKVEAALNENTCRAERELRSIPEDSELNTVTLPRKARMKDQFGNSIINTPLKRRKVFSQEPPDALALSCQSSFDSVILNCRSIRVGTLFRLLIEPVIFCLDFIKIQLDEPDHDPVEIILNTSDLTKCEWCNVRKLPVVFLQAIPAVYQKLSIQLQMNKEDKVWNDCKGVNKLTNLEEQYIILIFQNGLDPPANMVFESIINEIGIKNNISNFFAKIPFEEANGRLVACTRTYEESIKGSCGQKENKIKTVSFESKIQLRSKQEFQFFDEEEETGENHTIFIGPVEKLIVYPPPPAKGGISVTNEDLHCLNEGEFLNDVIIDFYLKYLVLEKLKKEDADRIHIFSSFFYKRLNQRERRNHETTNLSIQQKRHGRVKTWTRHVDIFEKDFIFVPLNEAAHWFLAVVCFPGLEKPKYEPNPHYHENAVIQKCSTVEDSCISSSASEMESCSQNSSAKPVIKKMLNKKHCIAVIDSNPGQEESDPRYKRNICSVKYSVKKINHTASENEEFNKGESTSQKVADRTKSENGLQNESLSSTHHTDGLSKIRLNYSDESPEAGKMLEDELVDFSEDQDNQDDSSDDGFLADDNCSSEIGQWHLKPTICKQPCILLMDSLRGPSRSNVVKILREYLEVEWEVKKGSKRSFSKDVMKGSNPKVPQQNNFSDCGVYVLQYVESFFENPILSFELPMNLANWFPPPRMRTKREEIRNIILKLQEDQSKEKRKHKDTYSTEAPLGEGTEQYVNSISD

[10] = target: T9, Sentrin-specific protease 7 (Homo sapiens, UniProt Q9BQF6); test: SENP7 protease inhibitors, SAR follow-up, biochemical, luminescence (AID 504497); assay type: functional
T9 sequence (Q9BQF6 whole entry): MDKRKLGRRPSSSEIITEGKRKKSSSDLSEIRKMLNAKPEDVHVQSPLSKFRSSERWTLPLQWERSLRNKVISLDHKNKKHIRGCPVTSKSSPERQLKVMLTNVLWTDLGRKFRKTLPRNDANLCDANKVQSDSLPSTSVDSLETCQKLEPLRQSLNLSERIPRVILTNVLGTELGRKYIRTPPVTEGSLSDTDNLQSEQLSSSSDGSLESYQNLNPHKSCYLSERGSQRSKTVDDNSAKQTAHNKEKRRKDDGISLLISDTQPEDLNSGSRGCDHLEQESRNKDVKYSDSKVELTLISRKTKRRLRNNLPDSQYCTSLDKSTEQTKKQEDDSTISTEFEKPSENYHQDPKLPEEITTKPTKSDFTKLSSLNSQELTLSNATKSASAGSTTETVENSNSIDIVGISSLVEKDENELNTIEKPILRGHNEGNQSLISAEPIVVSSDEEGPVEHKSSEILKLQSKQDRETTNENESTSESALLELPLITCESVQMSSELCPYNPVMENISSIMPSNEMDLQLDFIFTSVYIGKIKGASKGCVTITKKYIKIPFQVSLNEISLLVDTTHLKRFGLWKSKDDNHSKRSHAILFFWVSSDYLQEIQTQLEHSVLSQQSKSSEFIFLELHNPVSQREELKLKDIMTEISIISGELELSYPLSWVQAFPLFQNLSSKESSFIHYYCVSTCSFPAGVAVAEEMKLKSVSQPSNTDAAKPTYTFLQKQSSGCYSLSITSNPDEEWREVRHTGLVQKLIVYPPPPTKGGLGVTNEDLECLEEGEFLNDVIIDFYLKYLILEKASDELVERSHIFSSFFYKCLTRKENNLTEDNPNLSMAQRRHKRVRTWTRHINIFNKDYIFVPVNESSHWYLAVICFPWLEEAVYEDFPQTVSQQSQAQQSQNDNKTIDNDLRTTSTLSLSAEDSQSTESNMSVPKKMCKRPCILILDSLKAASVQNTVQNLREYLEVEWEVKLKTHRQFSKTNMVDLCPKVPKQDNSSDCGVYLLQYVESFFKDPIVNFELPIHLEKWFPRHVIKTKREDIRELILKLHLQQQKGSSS

T2 sequence (Q00975 whole entry): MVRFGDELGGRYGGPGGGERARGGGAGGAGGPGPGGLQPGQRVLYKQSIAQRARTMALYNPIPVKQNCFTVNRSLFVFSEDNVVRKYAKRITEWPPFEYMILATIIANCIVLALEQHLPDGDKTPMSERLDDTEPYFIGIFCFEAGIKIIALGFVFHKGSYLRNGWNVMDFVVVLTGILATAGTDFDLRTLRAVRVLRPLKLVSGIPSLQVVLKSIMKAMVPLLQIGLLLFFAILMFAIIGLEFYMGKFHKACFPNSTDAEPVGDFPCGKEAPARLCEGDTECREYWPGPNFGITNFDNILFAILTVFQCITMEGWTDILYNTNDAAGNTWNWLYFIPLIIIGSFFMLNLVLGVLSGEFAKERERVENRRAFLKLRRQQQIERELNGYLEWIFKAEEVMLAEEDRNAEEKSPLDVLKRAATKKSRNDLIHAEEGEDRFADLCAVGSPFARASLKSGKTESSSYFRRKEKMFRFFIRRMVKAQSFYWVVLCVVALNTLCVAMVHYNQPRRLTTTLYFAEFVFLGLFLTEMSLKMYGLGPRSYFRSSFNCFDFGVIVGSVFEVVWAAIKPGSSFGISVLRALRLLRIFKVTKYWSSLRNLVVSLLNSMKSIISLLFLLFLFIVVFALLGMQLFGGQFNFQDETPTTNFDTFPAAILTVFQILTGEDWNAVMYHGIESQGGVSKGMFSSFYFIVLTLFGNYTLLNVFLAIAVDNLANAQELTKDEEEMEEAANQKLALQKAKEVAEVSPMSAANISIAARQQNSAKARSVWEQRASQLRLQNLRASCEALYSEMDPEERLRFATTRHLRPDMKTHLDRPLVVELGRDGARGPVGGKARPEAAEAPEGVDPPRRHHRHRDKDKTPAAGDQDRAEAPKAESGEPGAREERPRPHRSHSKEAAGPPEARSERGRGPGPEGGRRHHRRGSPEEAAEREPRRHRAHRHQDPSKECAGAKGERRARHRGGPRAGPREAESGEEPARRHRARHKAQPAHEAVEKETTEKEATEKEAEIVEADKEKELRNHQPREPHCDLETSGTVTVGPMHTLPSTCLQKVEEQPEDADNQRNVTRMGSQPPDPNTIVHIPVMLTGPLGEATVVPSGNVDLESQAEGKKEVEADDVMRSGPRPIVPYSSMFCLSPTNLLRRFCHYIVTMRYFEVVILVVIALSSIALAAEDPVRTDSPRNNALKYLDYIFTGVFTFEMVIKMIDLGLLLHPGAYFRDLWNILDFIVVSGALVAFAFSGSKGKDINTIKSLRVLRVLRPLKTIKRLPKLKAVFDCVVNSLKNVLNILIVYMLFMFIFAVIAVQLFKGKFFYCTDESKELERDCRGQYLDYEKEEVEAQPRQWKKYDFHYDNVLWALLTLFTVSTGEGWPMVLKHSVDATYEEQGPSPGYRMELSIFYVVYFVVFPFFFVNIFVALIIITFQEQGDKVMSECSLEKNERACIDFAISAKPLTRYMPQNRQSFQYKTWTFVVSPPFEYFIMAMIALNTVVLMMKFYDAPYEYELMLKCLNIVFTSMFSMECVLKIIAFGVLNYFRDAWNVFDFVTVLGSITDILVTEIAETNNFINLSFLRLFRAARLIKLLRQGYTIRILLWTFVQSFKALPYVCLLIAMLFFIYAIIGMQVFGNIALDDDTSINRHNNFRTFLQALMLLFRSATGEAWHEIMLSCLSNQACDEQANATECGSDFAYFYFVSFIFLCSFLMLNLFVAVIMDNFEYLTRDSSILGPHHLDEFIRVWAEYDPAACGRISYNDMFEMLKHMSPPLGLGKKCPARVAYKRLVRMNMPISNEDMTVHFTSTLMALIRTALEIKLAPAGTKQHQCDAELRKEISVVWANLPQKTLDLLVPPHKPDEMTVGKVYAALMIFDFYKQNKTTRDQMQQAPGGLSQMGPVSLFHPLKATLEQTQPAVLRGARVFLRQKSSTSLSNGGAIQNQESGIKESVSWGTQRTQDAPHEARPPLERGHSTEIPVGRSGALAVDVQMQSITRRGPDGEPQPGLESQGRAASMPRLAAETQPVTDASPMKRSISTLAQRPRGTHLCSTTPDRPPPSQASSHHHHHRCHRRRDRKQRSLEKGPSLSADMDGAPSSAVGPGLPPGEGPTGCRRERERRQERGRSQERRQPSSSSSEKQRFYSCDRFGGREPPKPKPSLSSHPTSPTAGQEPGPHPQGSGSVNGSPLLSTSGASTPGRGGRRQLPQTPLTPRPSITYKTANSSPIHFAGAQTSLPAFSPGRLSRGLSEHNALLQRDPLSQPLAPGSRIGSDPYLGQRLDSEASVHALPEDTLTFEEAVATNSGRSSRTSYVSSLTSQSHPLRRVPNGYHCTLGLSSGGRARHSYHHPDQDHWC
T2 sequence (Q02410 whole entry): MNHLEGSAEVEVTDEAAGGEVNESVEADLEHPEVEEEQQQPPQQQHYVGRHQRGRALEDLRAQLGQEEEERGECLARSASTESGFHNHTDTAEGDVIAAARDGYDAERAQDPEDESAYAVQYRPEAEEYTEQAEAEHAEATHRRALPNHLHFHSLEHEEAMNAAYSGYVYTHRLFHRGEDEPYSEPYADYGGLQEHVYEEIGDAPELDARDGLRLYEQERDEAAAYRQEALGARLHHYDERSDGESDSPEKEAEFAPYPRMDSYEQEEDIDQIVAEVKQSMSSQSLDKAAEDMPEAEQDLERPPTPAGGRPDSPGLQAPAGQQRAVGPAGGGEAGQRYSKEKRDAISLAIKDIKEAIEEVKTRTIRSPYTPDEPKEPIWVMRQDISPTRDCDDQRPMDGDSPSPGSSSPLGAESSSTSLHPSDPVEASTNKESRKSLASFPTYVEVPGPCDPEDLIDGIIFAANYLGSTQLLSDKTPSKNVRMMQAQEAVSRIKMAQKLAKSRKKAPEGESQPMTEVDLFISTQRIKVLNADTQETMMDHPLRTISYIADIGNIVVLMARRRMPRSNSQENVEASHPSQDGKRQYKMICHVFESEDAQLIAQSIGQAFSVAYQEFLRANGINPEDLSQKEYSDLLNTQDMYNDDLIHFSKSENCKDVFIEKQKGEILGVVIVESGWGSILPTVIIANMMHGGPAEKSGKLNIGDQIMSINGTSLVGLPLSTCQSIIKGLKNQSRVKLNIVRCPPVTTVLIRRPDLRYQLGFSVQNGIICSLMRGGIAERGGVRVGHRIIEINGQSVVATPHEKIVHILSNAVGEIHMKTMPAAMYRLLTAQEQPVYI
T5 sequence (Q92731 whole entry): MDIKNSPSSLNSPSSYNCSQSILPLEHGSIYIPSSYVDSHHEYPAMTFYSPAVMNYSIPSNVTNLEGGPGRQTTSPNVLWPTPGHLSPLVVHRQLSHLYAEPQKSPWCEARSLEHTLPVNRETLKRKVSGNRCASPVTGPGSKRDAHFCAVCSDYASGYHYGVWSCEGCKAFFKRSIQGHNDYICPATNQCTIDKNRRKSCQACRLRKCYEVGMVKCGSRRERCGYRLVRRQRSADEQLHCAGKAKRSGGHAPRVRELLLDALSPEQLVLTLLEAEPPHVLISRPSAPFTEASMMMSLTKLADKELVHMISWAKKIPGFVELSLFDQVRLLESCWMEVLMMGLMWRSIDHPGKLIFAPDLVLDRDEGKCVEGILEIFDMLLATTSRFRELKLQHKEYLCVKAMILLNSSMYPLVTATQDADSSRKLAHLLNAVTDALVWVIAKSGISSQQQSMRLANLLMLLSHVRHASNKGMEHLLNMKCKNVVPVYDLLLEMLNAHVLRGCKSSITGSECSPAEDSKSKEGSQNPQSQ

SMILES: COc1ccc(-n2nc(C(=O)NCC(=O)NC3CCCC(C)C3C)c3ccccc3c2=O)c(OC)c1 (centres undefined)
- IC50 [1]: 14.5 µM (active)

SMILES: CCCCCCc1cc2cc(-c3nnc(-c4ccccc4)o3)c(=O)oc2cc1O
- EC50 [2]: 6.12 µM (active)
- IC50 [3]: 9.32 µM (active)
- EC50 (Streptokinase A): > 150 µM (not active)
- IC50 (Estrogen receptor): 34.9 µM (not active)
- IC50 [4]: > 50 µM (inactive)
- EC50 (Streptococcus): 38.7 µM (inconclusive)
- EC50 [5]: 3 µM (active)
- IC50 [1]: 11.7 µM (active)
- AC50 (INS1): 7.4 µM (active)
- CC50 (Vero): 11.3 µM (active)

SMILES: Cc1snc2sc(C(=O)c3ccc(Br)cc3)c(N)c12
- IC50 (Estrogen receptor): 28.2 µM (active)
- IC50 (Estrogen receptor beta [6]): > 50 µM (not active)
- IC50 (Estrogen receptor beta [7]): 0.0857 µM (not active)
- AC50 (HeLa): 67.4 µM (active)

SMILES: O=C(Nc1nc2c(Br)cccc2s1)c1ccc2c(c1)OCCO2
- IC50 [8]: 5.3 µM (active)
- IC50 (Caspase-3): 13 µM (active)
- IC50 [9]: 4.5 µM (active)
- IC50 [10]: 2.6 µM (active)
